US20040214796A1, “Novel therapeutic application of enoxaparin” (AVENTIS PHARMA S.A., priority 2000, published 2004)
Marks after values point to notes of the source that are not given here.

Assays:
cerebral ischemia [1] = test: Transient focal cerebral ischemia in rats (2 h clamp of left middle cerebral artery plus carotid ligation, then reperfusion), Studies 1-3; assay type: in vivo, rat (male Sprague Dawley); details: for reduction of the cortical lesion: vs control group; for CORTICAL LESION: mean ± S.E.M.
Description: Male Sprague Dawley rats (230-250 g Iffa Credo) are fed and watered ad libitum and kept in a light-dark cycle of 12 hours. Surgery was carried out under halothane (1.4% in a mixture of 70% N2O/30% O2). During anesthesia, normothermia is maintained by placing the rat under a thermostated cover. The left common carotid artery is isolated and a loose ligature is put in place. The left middle cerebral artery is exposed via a subtemporal craniotomy and a microclamp is placed in the proximal region of the artery, immediately followed by the ligation of the carotid artery. Two hours later, the animals are reanesthetized and the cerebral circulation is reestablished by removing the clamp from the middle cerebral artery and the ligature from the carotid artery. The rats are then placed in their cage in a thermostated room at 26-28° C. 48 hours after the surgery, a neurological examination is carried out for each rat by an examiner unaware of the treatment. The neurological scale used is described in Table 1. [table] After the neurological examination, the rats are humanely killed and their brains removed. 1.5 mm thick serial sections are prepared and stained with 2,3,5-triphenyltetrazolium chloride (TTC) at 2%. After 24 hours of post-fixing in a 10% formaldehyde solution, the lesion areas (cerebral infarct) are measured at the cortical and striatal levels; the volumes are calculated by integrating the lesioned surface areas. The values are expressed in mm^3 (mean ±S.E.M). Statistical analysis was carried out by a Mann-Whitney test or by a Kruskal-Wallis test for non-parametric variance analysis followed by a Dunn test for comparison between groups (*:p<0.05, **:p<0.01, ***:p<0.001 vs control group). In Study 1, enoxaparin is administered to 12 rats at 1.5 mg/kg iv, 2 hours and 24 hours after the onset of the ischemia. A control group of 10 rats receives only the vehicle (physiological solution of sodium chloride at 0.9%) following the same protocol. In Study 2, the therapeutic window of opportunity for enoxaparin is explored. The treatment starts 5 hours after the ischemia followed by a second administration at 24 hours. This study consists in an enoxaparin dose-effect on the cerebral lesions. The doses studied are 0.5:1 and 1.5 mg/kg iv (9-10 rats per group). A control group of 11 rats receives only the vehicle (physiological solution of sodium chloride at 0.9%). In Study 3, enoxaparin is administered to 10 rats at 1.5 mg/kg iv, 5 and 24 hours after the onset of the ischemia. The control group of 13 rats receives only the vehicle (physiological solution of sodium chloride at 0.9%).

cerebral ischemia [2] = test: Permanent focal cerebral ischemia in rats (left middle cerebral artery permanently cauterized, no carotid occlusion), Study 4; assay type: in vivo, rat (male Sprague Dawley); details: Study 4 (permanent occlusion), 2 × 1.5 mg/kg iv

Enoxaparin
reduction of the cortical lesion (cerebral ischemia [1]; Study 1, 2 × 1.5 mg/kg iv, 2 h and 24 h): 30%
CORTICAL LESION (cerebral ischemia [1]; Study 1, 2 × 1.5 mg/kg iv, 2 h and 24 h after onset of ischemia, measured 48 h after surgery): 131 ± 13* mm^3
CORTICAL LESION (cerebral ischemia [1]; Study 2, 2 × 0.5 mg/kg iv, 5 h and 24 h after ischemia): 164 ± 15 mm^3
reduction of the cortical lesion (cerebral ischemia [1]; Study 2, 2×1 mg/kg iv, 5 h and 24 h): 30%
CORTICAL LESION (cerebral ischemia [1]; Study 2, 2 × 1 mg/kg iv, 5 h and 24 h after ischemia): 142 ± 24* mm^3
reduction of the cortical lesion (cerebral ischemia [1]; Study 2, 2×1.5 mg/kg iv, 5 h and 24 h): 36%
CORTICAL LESION (cerebral ischemia [1]; Study 2, 2 × 1.5 mg/kg iv, 5 h and 24 h after ischemia): 129 ± 17* mm^3
reduction of the cortical lesion (cerebral ischemia [1]; Study 3, 2 × 1.5 mg/kg iv, 5 h and 24 h): 34%
CORTICAL LESION (cerebral ischemia [1]; Study 3, 2 × 1.5 mg/kg iv, 5 h and 24 h after onset of ischemia): 129 ± 16** mm^3
bleeding (cerebral ischemia [1]; during Studies 1-4, 0.5-1.5 mg/kg iv, two administrations): No problem of bleeding was encountered
reduction of the cortical lesion (cerebral ischemia [2]; 5 h and 24 h, vs control group): 49%
CORTICAL LESION (cerebral ischemia [2]; 5 h and 24 h after onset of ischemia, mean ± S.E.M.): 71 ± 13* mm^3
